Assay results published in patent publication US20110166112A1, “METHOD FOR STIMULATING PLATELET PRODUCTION” (Eisai, Inc., priority 2009, published 2011).

System: subjects with chronic ITP who completed 28 days of study treatment
Assay: Phase 2 6-month rollover study of E5501: effectiveness (durable, transient, overall platelet response, maintenance, steroid use, upward dose titration)
Type: in vivo, human
Experimental: This study was a multicenter, parallel-group, rollover study of E5501 in subjects with chronic ITP who were enrolled in and completed 28 days' of study treatment. All subjects who completed the previous study and otherwise met the eligibility criteria for this rollover protocol were enrolled.
Subjects who rolled over from the previous study were treated for an additional 6 months after completing previous study.
Initial dose: Subjects who met the efficacy response in the previous study continued to receive their previous blinded dose at entry into this study.
Dose titration was performed in an open label fashion in 10 mg increments as follows: • Nonresponders, who received initial doses of open-label E5501 10 mg in the previous study, could have their dose increased in 10 mg increments every 14 days to a maximum of 40 mg/day in the absence of platelet response.
Subjects were also permitted to reduce their dose of ITP-directed concomitant therapy (e.g., steroids). The overall goal of any dose modification was to maintain the subject's peripheral platelet count above 50,000/mm^3 and to decrease the need for ITP-directed concomitant medications (if applicable). During any dose modification of study drug or ITP-directed concomitant medications, platelet counts were collected every week. After platelet counts stabilized, platelet count collection reverted to a biweekly schedule.
Assessments: Study subjects were evaluated for safety and efficacy (including platelet count) on day 1 and then biweekly while receiving treatment.
Two primary analysis populations were used to summarize safety and effectiveness: • Safety population: all subjects who received at least 1 dose of study drug and had at least 1 post-treatment safety assessment in either the previous or this study. All safety analyses were performed using this population. • Full Analysis Set (FAS): all subjects who participated in both studies and who had at least one post-treatment effectiveness assessment in this study. All efficacy analyses were performed using this population.
Secondary Endpoints: The secondary endpoints were markers of effectiveness, including: • 1. Changes in platelet count from baselines of the previous study and of this study by study visit; and • 2. Durable platelet response, defined as subjects who had at least 3 platelet count assessments in the last 14 weeks of the 24-week treatment period, and whose platelet count was at a response level for at least 75% of the time in the last 14 weeks during the 24-week treatment period, with no rescue medication used during the 24-week treatment period. Platelet response level was defined as ≧50,000/mm^3 for subjects whose baseline platelet count was <30,000/mm^3 in the previous study or an increase in baseline platelet count of ≧20,000/mm^3 for subjects receiving steroids whose baseline platelet count in the previous study was ≧30,000/mm^3 but <50,000/mm^3; • 3. Transient platelet response, defined as achievement of a response level for any 4 consecutive weeks during the 24-week treatment period without durable platelet response in the absence of any rescue medication; • 4. Overall platelet response (durable platelet response plus transient platelet response); • 5. Maintenance of platelet response, defined as subjects who were responders in the previous study (e.g., responders on day 28 of the previous study) who achieved a durable response in this study and had no upward dose titration of E5501 during this study; • 6. Permanent discontinuation of steroid use, defined as subjects who used steroid medication within the 2-week period before their first dose of study drug in this study, and for whom concomitant steroid medication was discontinued at least 8 weeks before the end of the treatment period; • 7. Reduction of steroid use by at least 50%. […]

[1] = FAS, Baseline PC >15K/mm^3, Responders, N assessed 19
[2] = FAS, Baseline PC ≦15K/mm^3, E5501 Total, N assessed 15
[3] = FAS, Baseline PC ≦15K/mm^3, Non-Responders, N assessed 9
[4] = FAS, Baseline PC ≦15K/mm^3, Responders, N assessed 6
[5] = FAS, History of Splenectomy, E5501 Total, N assessed 17
[6] = FAS, History of Splenectomy, Non-Responders, N assessed 10
[7] = FAS, History of Splenectomy, Responders, N assessed 7
[8] = FAS, No History of Splenectomy, E5501 Total, N assessed 36
[9] = FAS, No History of Splenectomy, Non-Responders, N assessed 18
[10] = FAS, No History of Splenectomy, Responders, N assessed 18
[11] = FAS, ≧3 Lines of Prior Therapy, E5501 Total, N assessed 35
[12] = FAS, ≧3 Lines of Prior Therapy, Non-Responders, N assessed 22
[13] = FAS, ≧3 Lines of Prior Therapy, Responders, N assessed 13
[14] = SE population, E5501 Total (N=36)
[15] = SE population, Non-Responders (N=15)
[16] = SE population, Responders (N=21)

Structure (SMILES): O=C(Nc1nc(-c2cc(Cl)cs2)c(N2CCN(C3CCCCC3)CC2)s1)c1cnc(N2CCC(C(=O)O)CC2)c(Cl)c1 [E5501, 1-(3-chloro-5-{[4-(4-chlorothiophen-2-yl)-5-(4-cyclohexylpiperazin-1-yl)thiazol-2-yl]carbamoyl}pyridine-2-yl)piperidine-4-carboxylic acid]
- Durable Platelet Response, n (%) with response [1]: 15 (78.9) n (%)
- Overall Platelet Response, n (%) with response [1]: 18 (94.7) n (%)
- Durable Platelet Response, n (%) with response [2]: 4 (26.7) n (%)
- Overall Platelet Response, n (%) with response [2]: 7 (46.7) n (%)
- Durable Platelet Response, n (%) with response [3]: 1 (11.1) n (%)
- Overall Platelet Response, n (%) with response [3]: 3 (33.3) n (%)
- Durable Platelet Response, n (%) with response [4]: 3 (50.0) n (%)
- Overall Platelet Response, n (%) with response [4]: 4 (66.7) n (%)
- Durable Platelet Response, n (%) with response [5]: 5 (29.4) n (%)
- Overall Platelet Response, n (%) with response [5]: 10 (58.8) n (%)
- Durable Platelet Response, n (%) with response [6]: 1 (10.0) n (%)
- Overall Platelet Response, n (%) with response [6]: 5 (50.0) n (%)
- Durable Platelet Response, n (%) with response [7]: 4 (57.1) n (%)
- Overall Platelet Response, n (%) with response [7]: 5 (71.4) n (%)
- Durable Platelet Response, n (%) with response [8]: 23 (63.9) n (%)
- Overall Platelet Response, n (%) with response [8]: 30 (83.3) n (%)
- Durable Platelet Response, n (%) with response [9]: 9 (50.0) n (%)
- Overall Platelet Response, n (%) with response [9]: 13 (72.2) n (%)
- Durable Platelet Response, n (%) with response [10]: 14 (77.8) n (%)
- Overall Platelet Response, n (%) with response [10]: 17 (94.4) n (%)
- overall platelet response rate (FAS, all subjects): 75.5%
- overall platelet response rate (FAS, nonresponders): 64.3%
- overall platelet response rate (FAS, responders): 88.0%
- Durable Platelet Response, n (%) with response [11]: 16 (45.7) n (%)
- Overall Platelet Response, n (%) with response [11]: 25 (71.4) n (%)
- Durable Platelet Response, n (%) with response [12]: 7 (31.8) n (%)
- Overall Platelet Response, n (%) with response [12]: 14 (63.6) n (%)
- Durable Platelet Response, n (%) with response [13]: 9 (69.2) n (%)
- Overall Platelet Response, n (%) with response [13]: 11 (84.6) n (%)
- overall platelet response rate (SE population): 94.4%
- Durable Platelet Response No, % [14]: (25.0) %
- Durable Platelet Response Yes, % [14]: (75.0) %
- Transient Platelet Response No, % [14]: (80.6) %
- Transient Platelet Response Yes, % [14]: (19.4) %
- With Overall Response No, % [14]: (5.6) %
- With Overall Response Yes, % [14]: (94.4) %
- Durable Platelet Response No, % [15]: (40.0) %
- Durable Platelet Response Yes, % [15]: (60.0) %
- Transient Platelet Response No, % [15]: (73.3) %
- Transient Platelet Response Yes, % [15]: (26.7) %
- With Overall Response No, % [15]: (13.3) %
- With Overall Response Yes, % [15]: (86.7) %
- Durable Platelet Response No, % [16]: (14.3) %
- Durable Platelet Response Yes, % [16]: (85.7) %
- Transient Platelet Response No, % [16]: (85.7) %
- Transient Platelet Response Yes, % [16]: (14.3) %
- With Overall Response Yes, % [16]: (100.0) %
- Durable platelet response rate (SE population, all subjects): 75%
- Durable platelet response rate (SE population, non-responders): 60.0%
- Durable platelet response rate (SE population, responders): 85.7%
- subjects who needed an upward dose titration (all subjects (n=26/53)): 49%
- subjects able to decrease their steroid dose by at least 50% (in vivo): Thirteen
- improved overall response rate when subjects received a dose titration (non-responders in the previous study): 87.6%
- overall response rate (non-responders on E5501 2.5 mg in previous study, open-label E5501 10 mg in current study): 70%
- overall response rate (non-responders on E5501 5 mg in previous study, open-label E5501 10 mg in current study): 80%
- overall response rate (non-responders on placebo in previous study, open-label E5501 10 mg in current study): 80%
- subjects not responding to E5501 10 mg in the previous study who responded at 20 mg (of five subjects): Two
- subjects who used concomitant steroids able to decrease their concomitant steroid use by at least 50% (regardless of responder status): 54.2%
- subjects who used concomitant steroids able to permanently discontinue using steroids (regardless of responder status): 33.3%
- overall response when subjects received a dose titration (responders in the previous study): 100%
- overall response rate (responders receiving double-blind E5501 10 mg): 71.4%
- platelet counts from baseline (FIG. 2 FAS, FIG. 3 SE population) (rollover study): markedly increased from baseline
- durable platelet response estimate (sensitivity analysis based on 55 subjects, all subjects): 50.9%
- durable platelet response estimate (sensitivity analysis, non-responders): 33.3%
- durable platelet response estimate (sensitivity analysis, responders): 72%
